The source of these data is patent US20200276181A1, “THIENOISOQUINOLINES AND THEIR DERIVATIVES FOR TARGETING TUBULIN, CH-TOG, AURORA A KINASE, TPX2, CDK5RAP2 AND/OR ASPM” (VALORBEC, SEC, priority 2017, published 2020).

Experiment [1] deals with HeLa cells in metaphase. Put plainly: Short treatment and washout, spindle recovery. The experiment is classed as cell-based, human. The settings on record: 5 minutes treatment, washout, imaged after 40 minutes. The text has this:
For each condition, 20,000 cells were counted per replicate (N=3). Line graphs (right) were made to better illustrate the relative changes in the cell cycle phases for the different treatments. Bars show standard deviation. The asterisks indicate the first statistically significant change in the G0/G1 and G2/M populations determined by a two-way ANOVA with a post-hoc Tukey's multiple comparisons test using 95% confidence intervals. FIG. 2B) is a line graph showing the percentage of HCT116 (p53−/−) cells, A549 cells, HeLa cells and H1299 cells in mitosis after treatment with various concentrations of C75 for one population doubling time. All of the cell lines show an increase in the proportion of mitotic cells after treatment with 200 nM C75. The bars indicate standard deviation. […]
C75 was also tested for efficacy in different cancer cell lines. […] To further assess the role of C75 in disrupting spindles, HeLa cells were treated with 300 nM C75 for 4 hours and the spindle phenotypes were analyzed in more detail (FIG. 2E). […] To assess the affect of C75 on centrosomes, HeLa cells were treated with C75 or nocodazole (a drug that causes microtubule depolymerization as a control) for a short period of time (5 minutes), then the drugs were removed and the cells were analyzed for spindle phenotypes (schematic in FIG. 2G). […]

Experiment [2] relates to HeLa cells. Briefly: Spindle morphology, fixed cells stained for tubulin and DAPI. The format is cell-based, human. How it is done: FIG. 1A) is a line graph showing changes in the percentage of viable HFF-1, HeLa, A549 and HCT 116 cells after treatment with a range of C75 concentrations for 3 population doubling times (N=3). […] There were more rounded mitotic cells after C75 treatment in comparison to the control. FIG. 1C) is a line graph showing the percentage of HeLa and HFF1 cells in mitosis after treatment with various concentrations of C75 for 8 hours. The bars indicate standard deviation. FIG. 1D) is a series of images showing cells that were fixed and co-stained for tubulin (microtubules) and DAPI (DNA). Treatment of HeLa cells with 300 nM C75 caused the mitotic spindles to be disorganized, while they were not affected in HFF1 cells. […] The scale bar for the cells is 10 μm. […] FIG. 1F) is a cartoon schematic showing the key features of a metaphase cell.
The images in FIG. 1B) show fields of view of HeLa cells treated with (dimethyl sulfoxide) DMSO or 500 nM of C75. […] Higher concentrations of C75 caused spindle phenotypes in HFF1 cells, but they were quite different in comparison to HeLa cells (FIG. 1D).

Take `COc1ccc(S(=O)(=O)N2Cc3ccccc3-c3sc(Br)cc32)cc1` [Compound C75]: the “spindles reformed after drug removal” value in experiment [1] is reported as “tri- or multipolar spindles formed”. For the same molecule, the mitotic spindle morphology entry is “spindle organization was perturbed” in experiment [2] (300 nM); “Centrosomes were fragmented or declustered and microtubules were completely absent” in experiment [2] (750 nM).
